Assay results reported in ChEMBL document CHEMBL5291721, “A preclinical secondary pharmacology resource illuminates target-adverse drug reaction associations of marketed drugs” (Nat Commun, 2023).

Experiments:
[1] = target: T1, Gamma-aminobutyric acid receptor subunit alpha-1/alpha-2/beta-2/gamma-2 (Homo sapiens, UniProt P14867+P18507+P47869+P47870); format: functional, cell-based
[2] = target: T1, Gamma-aminobutyric acid receptor subunit alpha-1/alpha-2/beta-2/gamma-2; format: functional, cell-based; remark: listed apart in the source
[3] = target: T2, Corticotropin-releasing factor receptor 1 (Homo sapiens, UniProt P34998)
T2 sequence (P34998 whole entry): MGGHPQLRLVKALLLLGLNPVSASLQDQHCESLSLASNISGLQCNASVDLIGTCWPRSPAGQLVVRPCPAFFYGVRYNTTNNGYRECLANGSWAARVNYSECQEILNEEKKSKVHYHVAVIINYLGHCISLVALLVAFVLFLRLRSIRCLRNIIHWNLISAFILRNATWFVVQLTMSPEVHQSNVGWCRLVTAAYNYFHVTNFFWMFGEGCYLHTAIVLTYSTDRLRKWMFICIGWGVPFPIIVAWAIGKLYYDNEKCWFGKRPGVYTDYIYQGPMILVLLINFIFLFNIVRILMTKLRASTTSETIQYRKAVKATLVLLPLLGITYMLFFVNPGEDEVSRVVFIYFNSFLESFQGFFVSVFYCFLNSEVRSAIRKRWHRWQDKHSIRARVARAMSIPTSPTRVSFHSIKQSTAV

[4] = target: T3, Gastric inhibitory polypeptide receptor (Homo sapiens, UniProt P48546)
T3 sequence (P48546 whole entry): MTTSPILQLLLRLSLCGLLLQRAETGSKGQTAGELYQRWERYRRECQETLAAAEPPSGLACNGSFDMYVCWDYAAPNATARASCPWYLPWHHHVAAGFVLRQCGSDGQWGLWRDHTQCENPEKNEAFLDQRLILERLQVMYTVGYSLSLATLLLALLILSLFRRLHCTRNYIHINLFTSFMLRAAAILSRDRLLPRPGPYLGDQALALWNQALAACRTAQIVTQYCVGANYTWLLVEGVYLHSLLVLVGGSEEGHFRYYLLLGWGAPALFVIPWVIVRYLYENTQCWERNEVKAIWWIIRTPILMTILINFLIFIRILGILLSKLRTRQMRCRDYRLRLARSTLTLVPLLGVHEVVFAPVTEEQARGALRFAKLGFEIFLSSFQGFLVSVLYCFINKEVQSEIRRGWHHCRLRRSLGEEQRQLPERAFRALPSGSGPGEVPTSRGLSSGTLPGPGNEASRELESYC

[5] = target: 5-hydroxytryptamine receptor 2B (Homo sapiens, UniProt P41595)
Sequence of 5-hydroxytryptamine receptor 2B (P41595 whole entry): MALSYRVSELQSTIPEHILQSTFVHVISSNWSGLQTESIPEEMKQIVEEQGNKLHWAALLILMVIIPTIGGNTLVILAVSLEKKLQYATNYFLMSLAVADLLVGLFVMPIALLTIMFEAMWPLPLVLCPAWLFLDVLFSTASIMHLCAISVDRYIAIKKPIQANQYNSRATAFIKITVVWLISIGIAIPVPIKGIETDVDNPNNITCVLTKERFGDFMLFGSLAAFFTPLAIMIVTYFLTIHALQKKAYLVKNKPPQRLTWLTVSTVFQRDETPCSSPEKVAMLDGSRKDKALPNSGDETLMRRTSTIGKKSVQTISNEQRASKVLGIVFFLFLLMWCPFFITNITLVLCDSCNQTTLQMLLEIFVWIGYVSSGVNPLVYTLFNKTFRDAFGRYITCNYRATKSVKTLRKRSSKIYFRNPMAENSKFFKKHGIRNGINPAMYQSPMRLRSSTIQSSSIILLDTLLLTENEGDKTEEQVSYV

[6] = target: T4, Alpha-1A adrenergic receptor (Homo sapiens, UniProt P35348)
T4 sequence (P35348 whole entry): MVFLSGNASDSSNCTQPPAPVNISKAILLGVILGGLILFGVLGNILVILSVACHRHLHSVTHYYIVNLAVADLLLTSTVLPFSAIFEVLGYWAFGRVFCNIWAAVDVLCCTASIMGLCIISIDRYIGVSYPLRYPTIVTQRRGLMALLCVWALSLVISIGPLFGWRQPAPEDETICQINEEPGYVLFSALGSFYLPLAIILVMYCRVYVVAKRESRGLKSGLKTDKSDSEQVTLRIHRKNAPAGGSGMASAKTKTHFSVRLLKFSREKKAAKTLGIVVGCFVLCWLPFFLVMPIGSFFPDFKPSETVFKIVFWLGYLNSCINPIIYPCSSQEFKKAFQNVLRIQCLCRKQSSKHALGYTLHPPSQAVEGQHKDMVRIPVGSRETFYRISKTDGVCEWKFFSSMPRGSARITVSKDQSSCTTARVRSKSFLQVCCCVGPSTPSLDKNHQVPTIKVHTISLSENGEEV

[7] = target: 5-hydroxytryptamine receptor 2A (Homo sapiens, UniProt P28223)
Sequence of 5-hydroxytryptamine receptor 2A (P28223 whole entry): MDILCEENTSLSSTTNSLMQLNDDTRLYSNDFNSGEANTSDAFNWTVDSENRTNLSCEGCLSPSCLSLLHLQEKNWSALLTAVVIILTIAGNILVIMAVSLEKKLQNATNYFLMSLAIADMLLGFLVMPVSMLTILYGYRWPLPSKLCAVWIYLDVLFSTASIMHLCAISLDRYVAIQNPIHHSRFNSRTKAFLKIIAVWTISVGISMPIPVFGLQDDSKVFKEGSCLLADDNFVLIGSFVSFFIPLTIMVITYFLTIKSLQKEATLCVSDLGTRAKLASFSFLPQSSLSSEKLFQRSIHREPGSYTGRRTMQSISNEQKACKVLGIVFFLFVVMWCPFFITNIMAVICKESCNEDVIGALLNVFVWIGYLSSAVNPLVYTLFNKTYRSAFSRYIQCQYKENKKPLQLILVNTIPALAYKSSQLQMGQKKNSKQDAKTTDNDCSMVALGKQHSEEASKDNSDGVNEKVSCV

Androgen receptor = target: T5, Androgen receptor (Rattus norvegicus, UniProt P15207); format: functional
T5 sequence (P15207 whole entry): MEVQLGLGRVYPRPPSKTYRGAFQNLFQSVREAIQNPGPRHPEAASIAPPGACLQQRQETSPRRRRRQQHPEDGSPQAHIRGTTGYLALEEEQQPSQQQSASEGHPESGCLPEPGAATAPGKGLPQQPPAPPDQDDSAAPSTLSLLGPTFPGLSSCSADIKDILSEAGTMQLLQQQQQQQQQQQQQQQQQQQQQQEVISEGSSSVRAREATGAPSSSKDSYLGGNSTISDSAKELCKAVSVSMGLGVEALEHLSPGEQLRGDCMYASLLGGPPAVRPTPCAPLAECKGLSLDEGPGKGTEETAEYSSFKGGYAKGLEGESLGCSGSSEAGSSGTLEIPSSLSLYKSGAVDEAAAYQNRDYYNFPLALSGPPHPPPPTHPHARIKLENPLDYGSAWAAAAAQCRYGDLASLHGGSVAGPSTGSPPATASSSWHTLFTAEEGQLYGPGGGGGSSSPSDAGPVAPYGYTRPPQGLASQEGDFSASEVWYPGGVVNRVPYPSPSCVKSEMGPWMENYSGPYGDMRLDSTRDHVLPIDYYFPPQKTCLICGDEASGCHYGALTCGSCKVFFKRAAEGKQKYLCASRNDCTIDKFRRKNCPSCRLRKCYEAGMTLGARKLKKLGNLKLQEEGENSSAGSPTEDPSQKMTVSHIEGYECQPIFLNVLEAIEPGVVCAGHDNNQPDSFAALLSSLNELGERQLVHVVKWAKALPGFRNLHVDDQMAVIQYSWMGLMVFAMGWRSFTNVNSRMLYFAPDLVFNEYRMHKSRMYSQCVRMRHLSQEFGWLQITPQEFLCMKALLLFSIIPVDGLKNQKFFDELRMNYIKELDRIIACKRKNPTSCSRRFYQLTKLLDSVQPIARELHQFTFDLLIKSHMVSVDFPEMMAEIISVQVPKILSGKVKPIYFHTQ
Note: assay procedure not described here.

T1 sequence (P14867 whole entry): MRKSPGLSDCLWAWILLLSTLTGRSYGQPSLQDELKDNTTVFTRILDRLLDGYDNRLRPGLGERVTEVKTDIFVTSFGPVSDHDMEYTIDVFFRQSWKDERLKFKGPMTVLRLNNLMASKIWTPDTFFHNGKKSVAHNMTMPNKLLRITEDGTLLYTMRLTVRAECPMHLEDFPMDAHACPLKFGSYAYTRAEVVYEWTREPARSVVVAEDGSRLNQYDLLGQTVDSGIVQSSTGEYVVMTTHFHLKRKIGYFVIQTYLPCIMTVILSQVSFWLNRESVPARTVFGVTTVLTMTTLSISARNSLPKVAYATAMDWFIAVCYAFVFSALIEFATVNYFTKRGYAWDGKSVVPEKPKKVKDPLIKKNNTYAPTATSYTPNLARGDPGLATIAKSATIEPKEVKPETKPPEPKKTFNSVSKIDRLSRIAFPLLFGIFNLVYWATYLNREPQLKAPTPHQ
T1 sequence (P47870 whole entry): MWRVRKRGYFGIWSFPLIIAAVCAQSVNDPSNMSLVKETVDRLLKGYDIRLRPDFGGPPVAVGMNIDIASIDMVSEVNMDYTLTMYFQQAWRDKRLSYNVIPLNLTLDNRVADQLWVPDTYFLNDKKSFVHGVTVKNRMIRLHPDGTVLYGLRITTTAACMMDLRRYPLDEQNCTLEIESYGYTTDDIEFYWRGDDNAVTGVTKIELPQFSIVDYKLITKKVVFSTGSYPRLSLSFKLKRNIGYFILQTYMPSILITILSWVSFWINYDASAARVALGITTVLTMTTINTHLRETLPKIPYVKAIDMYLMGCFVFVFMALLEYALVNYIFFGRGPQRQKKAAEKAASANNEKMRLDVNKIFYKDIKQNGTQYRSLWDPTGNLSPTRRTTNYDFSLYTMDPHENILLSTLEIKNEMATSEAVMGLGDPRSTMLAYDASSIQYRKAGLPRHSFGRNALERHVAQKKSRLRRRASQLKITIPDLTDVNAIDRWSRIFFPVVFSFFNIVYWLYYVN
T1 sequence (P18507 whole entry): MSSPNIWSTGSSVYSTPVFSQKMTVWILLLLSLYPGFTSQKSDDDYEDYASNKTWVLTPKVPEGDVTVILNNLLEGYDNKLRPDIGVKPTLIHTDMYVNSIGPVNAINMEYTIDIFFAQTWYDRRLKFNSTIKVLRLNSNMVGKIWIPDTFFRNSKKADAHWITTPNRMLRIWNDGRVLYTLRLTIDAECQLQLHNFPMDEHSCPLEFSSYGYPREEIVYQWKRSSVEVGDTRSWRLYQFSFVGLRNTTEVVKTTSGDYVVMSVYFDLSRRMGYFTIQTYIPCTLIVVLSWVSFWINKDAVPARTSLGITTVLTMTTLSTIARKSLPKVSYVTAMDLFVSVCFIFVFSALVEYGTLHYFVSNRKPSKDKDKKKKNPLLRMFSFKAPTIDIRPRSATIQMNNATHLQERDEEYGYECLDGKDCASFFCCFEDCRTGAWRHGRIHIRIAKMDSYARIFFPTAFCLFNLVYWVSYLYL
T1 sequence (P47869 whole entry): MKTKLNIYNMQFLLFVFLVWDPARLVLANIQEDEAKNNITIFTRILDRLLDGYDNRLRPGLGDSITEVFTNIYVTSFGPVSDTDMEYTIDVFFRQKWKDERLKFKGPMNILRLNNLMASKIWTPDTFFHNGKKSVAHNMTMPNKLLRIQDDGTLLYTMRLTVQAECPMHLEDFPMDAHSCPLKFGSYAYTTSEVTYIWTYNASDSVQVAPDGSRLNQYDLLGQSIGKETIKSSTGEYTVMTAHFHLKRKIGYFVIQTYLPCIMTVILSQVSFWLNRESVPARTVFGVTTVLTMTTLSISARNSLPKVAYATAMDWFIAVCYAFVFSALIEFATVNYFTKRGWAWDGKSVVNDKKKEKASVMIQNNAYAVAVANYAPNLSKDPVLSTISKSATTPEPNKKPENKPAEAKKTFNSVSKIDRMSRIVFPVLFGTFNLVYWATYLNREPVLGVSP

Molecule: CC/C=C\C/C=C\C/C=C\CCCCCCCC(=O)O [LINOLENIC ACID]
- AC50 [1]: > 10 µM
- AC50 [2]: > 30 µM

Molecule: Cc1cccc(C)c1NC(=O)C1CCCCN1C (stereo not given) [MEPIVACAINE]
- AC50 [1]: > 30 µM

Molecule: C[C@H]1C[C@@H]2[C@H]([C@@H](O)C[C@@]3(C)[C@H]2CC[C@]3(O)C(=O)COC(=O)CCC(=O)O)[C@@]2(C)C=CC(=O)C=C12 [METHYLPREDNISOLONE HEMISUCCINATE]
- AC50 [1]: > 30 µM
- AC50 [2]: > 30 µM

Molecule: Cc1cc(-c2ccccc2)nnc1NCCN1CCOCC1 [MINAPRINE]
- AC50 [3]: > 30 µM
- AC50 [4]: > 30 µM
- AC50 [5]: 1.4 µM
- AC50 [6]: > 10 µM
- AC50 [7]: > 10 µM

Molecule: CCCCC(C)(O)C/C=C/[C@H]1[C@H](O)CC(=O)[C@@H]1CCCCCCC(=O)OC (stereo not given in full) [MISOPROSTOL]
- AC50 [1]: > 30 µM
- AC50 [2]: > 30 µM

Molecule: NC(=O)C[S+]([O-])C(c1ccccc1)c1ccccc1 (stereo not given) [MODAFINIL]
- AC50 [3]: > 30 µM
- AC50 [4]: > 30 µM
- AC50 [5]: > 10 µM
- AC50 [6]: > 10 µM

Molecule: O=C(OCCN1CCOCC1)c1cccnc1Nc1cccc(C(F)(F)F)c1 [MORNIFLUMATE]
- AC50 (Androgen receptor): > 30 µM

Molecule: COc1c(C)c2c(c(O)c1C/C=C(\C)CCC(=O)OCCN1CCOCC1)C(=O)OC2 [MYCOPHENOLATE MOFETIL]
- AC50 (Androgen receptor): > 30 µM

Molecule: CCCCCCC(C)(C)c1cc(O)c2c(c1)OC(C)(C)C1CCC(=O)CC21 (stereo not given) [NABILONE]
- AC50 (Androgen receptor): > 30 µM
- AC50 [1]: > 30 µM
- AC50 [2]: > 30 µM

Molecule: CCCCCCCCOc1ccccc1C(=O)Nc1ccc(C(=O)OCC[N+](C)(CC)CC)cc1 [OTILONIUM BROMIDE]
- AC50 [5]: 0.712 µM

Molecule: O=C(O)CCCc1ccccc1 [PHENYLBUTANOIC ACID]
- AC50 [3]: > 30 µM
- AC50 [4]: > 30 µM
- AC50 [5]: > 10 µM
- AC50 [6]: > 10 µM
- AC50 [7]: > 10 µM

Molecule: CC(Cc1ccccc1)NCCC(c1ccccc1)c1ccccc1 (stereo not given) [PRENYLAMINE]
- AC50 [7]: 3.38 µM

Molecule: CCCOc1ccc(C(=O)OCCN(CC)CC)cc1N [PROPARACAINE]
- AC50 [1]: > 30 µM

Molecule: Cc1nc2ccc(CN(C)c3ccc(C(=O)N[C@@H](CCC(=O)O)C(=O)O)s3)cc2c(=O)[nH]1 [RALTITREXED]
- AC50 (Androgen receptor): > 30 µM

Molecule: C1COC(NC(C2CC2)C2CC2)=N1 [RILMENIDINE]
- AC50 [7]: > 10 µM

Molecule: Nc1nc2ccc(OC(F)(F)F)cc2s1 [RILUZOLE]
- AC50 [1]: > 30 µM
- AC50 [2]: > 30 µM

Molecule: O=C1NCCN1CCN1CCC(c2cn(-c3ccc(F)cc3)c3ccc(Cl)cc23)CC1 [SERTINDOLE]
- AC50 (Androgen receptor): > 30 µM
- AC50 [5]: 0.012 µM

Molecule: COc1ccc(C(=O)N2CCN(c3ccc4c(c3)CCC(=O)N4)CC2)cc1OC [VESNARINONE]
- AC50 (Androgen receptor): 2.5 µM
- AC50 [1]: > 30 µM
- AC50 [2]: > 30 µM

Molecule: CC[C@]1(O)C[C@@H]2CN(CCc3c([nH]c4ccccc34)[C@@](C(=O)OC)(c3cc4c(cc3OC)N(C)[C@H]3[C@@](O)(C(N)=O)[C@H](O)[C@]5(CC)C=CCN6CC[C@]43[C@@H]65)C2)C1 [VINDESINE]
- AC50 (Androgen receptor): > 30 µM

Molecule: Cc1ccc(-c2nc3ccc(C)cn3c2CC(=O)N(C)C)cc1 [ZOLPIDEM]
- AC50 [3]: > 30 µM
- AC50 [4]: > 30 µM
- AC50 [5]: > 10 µM
- AC50 [6]: > 10 µM
- AC50 [7]: > 10 µM

Molecule: CN1CCN(C(=O)OC2c3nccnc3C(=O)N2c2ccc(Cl)cn2)CC1 (stereo not given) [ZOPICLONE]
- AC50 [3]: > 30 µM
- AC50 [4]: > 30 µM
- AC50 [5]: > 10 µM
- AC50 [6]: > 10 µM
- AC50 [7]: > 10 µM

Molecule: TOCOFERSOLAN
- AC50 (Androgen receptor): > 30 µM
